Measurements from US20180170903A1, “PYRIDIN-3-YL ACETIC ACID DERIVATIVES AS INHIBITORS OF HUMAN IMMUNODEFICIENCY VIRUS REPLICATION” (ViiV HEALTHCARE UK (NO.5) LIMITED, priority 2015, published 2018).
Where two headings read alike, the source gives them in different places.

System: NL-RLuc virus (recombinant HIV NL4-3 proviral clone with Renilla Luciferase) in MT-2 cells
Assay: Inhibition of HIV Replication (NL-RLuc luciferase reporter virus, MT-2 cells)
Assay type: cell-based
Conditions: MT2, 120 h
Excerpt: Inhibition of HIV Replication:
A recombinant NL-RLuc proviral clone was constructed in which a section of the nef gene from NL4-3 was replaced with the Renilla Luciferase gene. This virus is fully infectious and can undergo multiple cycles of replication in cell culture. In addition, the luciferous reporter provides a simple and easy method for quantitating the extent of virus growth and consequently, the antiviral activity of test compounds. The plasmid pNLRLuc contains the proviral NL-Rluc DNA cloned into pUC 18 at the PvuII site. The NL-RLuc virus was prepared by transfection of 293T cells with the plasmid pNLRLuc. Transfections were performed using the LipofectAMINE PLUS kit from Invitrogen (Carlsbad, Calif.) according to the manufacturer and the virus generated was titered in MT-2 cells. For susceptibility analyses, the titrated virus was used to infect MT-2 cells in the presence of compound, and after 5 days of incubation, cells were processed and quantitated for virus growth by the amount of expressed luciferase. Assay media was RPMI 1640 supplemented with 10% heat inactivated fetal bovine serum (FBS), 100 units/ml penicillin G/100 units/ml streptomycin, 10 mM HEPES buffer pH 7.55 and 2 mM L-glutamine. The results from at least 2 experiments were used to calculate the EC50 values. Luciferase was quantitated using the Dual Luciferase kit from Promega (Madison, Wis.). Susceptibility of viruses to compounds was determined by incubation in the presence of serial dilutions of the compound. The 50% effective concentration (EC50) was calculated by using the exponential form of the median effect equation where (Fa)=1/[1+(ED50/drug conc.)^m](Johnson V A, Byington R T. Infectivity Assay. In Techniques in HIV Research. ed. Aldovini A, Walker B D. 71-76. New York: Stockton Press. 1990). Activity equal to A refers to a compound having an EC50≤100 nM, while B and C denote compounds having an EC50 between 100 nM and 1 uM (B) or >1 uM (C).

| SMILES | EC50 (read-out: Activity) [µM] | EC50 (read-out: EC50 μM) [µM] |
| --- | --- | --- |
| COc1ccc(CCNCc2ccc(-c3c(C)nc(C)c([C@H](OC(C)(C)C)C(=O)O)c3N3CCC(C)(C)CC3)cc2)cc1 [Example 8, (S)-2-(tert-butoxy)-2-(4-(4,4-dimethylpiperidin-1-yl)-5-(4-(((4-methoxyphenethyl)amino)methyl)phenyl)-2,6-dimethylpyridin-3-yl)acetic acid] | < 0.1 | 0.09 |
| Cc1nc(C)c([C@H](OC(C)(C)C)C(=O)O)c(N2CCC(C)(C)CC2)c1-c1ccc(CN(Cc2ccc(F)cc2)C(=O)c2ccccc2)cc1 [Example 21, (S)-2-(tert-butoxy)-2-(4-(4,4-dimethylpiperidin-1-yl)-5-(4-((N-(4-fluorobenzyl)benamido)methyl)phenyl)-2,6-dimethylpyridin-3-yl)acetic acid] | < 0.1 | – |
| COC(=O)c1ccc(CNCc2ccc(-c3c(C)nc(C)c([C@H](OC(C)(C)C)C(=O)O)c3N3CCC(C)(C)CC3)cc2)cc1 [Example 18, (S)-2-(tert-butoxy)-2-(4-(4,4-dimethylpiperidin-1-yl)-5-(4-(((4-(methoxycarbonyl)benzyl)amino)methyl)phenyl)-2,6-dimethylpyridin-3-yl)acetic acid] | 0.1 to 1 | 0.228 |
| Cc1nc(C)c([C@H](OC(C)(C)C)C(=O)O)c(N2CCC(C)(C)CC2)c1-c1ccc(CN(Cc2ccc(F)cc2)C(=O)c2ccccc2F)cc1 [Example 27, (S)-2-(tert-butoxy)-2-(4-(4,4-dimethylpiperidin-1-yl)-5-(4-((2-fluoro-N-(4-fluorobenzyl)benzamido)methyl)phenyl)-2,6-dimethylpyridin-3-yl)acetic acid] | < 0.1 | 0.008 |
| Cc1nc(C)c([C@H](OC(C)(C)C)C(=O)O)c(N2CCC(C)(C)CC2)c1-c1ccc(CSCc2ccc(F)cc2)cc1 [Example 52, (S)-2-(tert-Butoxy)-2-(4-(4,4-dimethylpiperidin-1-yl)-5-(4-(((4-fluorobenzyl)thio)methyl)phenyl)-2,6-dimethylpyridin-3-yl)acetic acid] | < 0.1 | – |
| Cc1nc(C)c([C@H](OC(C)(C)C)C(=O)O)c(N2CCC(C)(C)CC2)c1-c1ccc(CN(C)Cc2ccc(F)cc2)cc1 [Example 7, (S)-2-(tert-butoxy)-2-(4-(4,4-dimethylpiperidin-1-yl)-5-(4-(((4-fluorobenzyl)(methyl)amino)methyl)phenyl)-2,6-dimethylpyridin-3-yl)acetic acid] | < 0.1 | – |
| COc1ccccc1C(=O)N(Cc1ccc(F)cc1)Cc1ccc(-c2c(C)nc(C)c([C@H](OC(C)(C)C)C(=O)O)c2N2CCC(C)(C)CC2)cc1 [Example 26, (S)-2-(tert-butoxy)-2-(4-(4,4-dimethylpiperidin-1-yl)-5-(4-((N-(4-fluorobenzyl)-2-methoxybenzamido)methyl)phenyl)-2,6-dimethylpyridin-3-yl)acetic acid] | < 0.1 | – |
| Cc1nc(C)c([C@H](OC(C)(C)C)C(=O)O)c(N2CCC(C)(C)CC2)c1-c1ccc(CN2CCc3ccccc3C2)cc1 [Example 53, (S)-2-(tert-Butoxy)-2-(5-(4-((3,4-dihydroisoquinolin-2(1H)-yl)methyl)phenyl)-4-(4,4-dimethylpiperidin-1-yl)-2,6-dimethylpyridin-3-yl)acetic acid] | < 0.1 | 0.076 |
| Cc1nc(C)c([C@H](OC(C)(C)C)C(=O)O)c(N2CCC(C)(C)CC2)c1-c1ccc(CN(Cc2ccc(F)cc2)C(=O)C2CC2)cc1 [Example 40, (S)-2-(tert-butoxy)-2-(4-(4,4-dimethylpiperidin-1-yl)-5-(4-((N-(4-fluorobenzyl)cyclopropanecarboxamido)methyl)phenyl)-2,6-dimethylpyridin-3-yl)acetic acid] | < 0.1 | – |
| Cc1nc(C)c([C@H](OC(C)(C)C)C(=O)O)c(N2CCC(C)(C)CC2)c1-c1ccc(CNCCC(C)(C)C)cc1 [Example 6, (S)-2-(tert-butoxy)-2-(5-(4-(((3,3-dimethylbutyl)amino)methyl)phenyl)-4-(4,4-dimethylpiperidin-1-yl)-2,6-dimethylpyridin-3-yl)acetic acid] | 0.1 to 1 | – |
| Cc1nc(C)c([C@H](OC(C)(C)C)C(=O)O)c(N2CCC(C)(C)CC2)c1-c1ccc(COC(C)(C)C)cc1 [Example 49, (S)-2-(tert-Butoxy)-2-(5-(4-(tert-butoxymethyl)phenyl)-4-(4,4-dimethylpiperidin-1-yl)-2,6-dimethylpyridin-3-yl)acetic acid] | < 0.1 | – |
| Cc1nc(C)c([C@H](OC(C)(C)C)C(=O)O)c(N2CCC(C)(C)CC2)c1-c1ccc(CN(Cc2ccc(F)cc2)C(=O)c2ccccc2C(F)(F)F)cc1 [Example 39, (S)-2-(tert-butoxy)-2-(4-(4,4-dimethylpiperidin-1-yl)-5-(4-((N-(4-fluorobenzyl)-2-(trifluoromethyl)benzamido)methyl)phenyl)-2,6-dimethylpyridin-3-yl)acetic acid] | < 0.1 | – |
| COc1cccc(C(=O)N(Cc2ccc(F)cc2)Cc2ccc(-c3c(C)nc(C)c([C@H](OC(C)(C)C)C(=O)O)c3N3CCC(C)(C)CC3)cc2)c1 [Example 37, (S)-2-(tert-butoxy)-2-(4-(4,4-dimethylpiperidin-1-yl)-5-(4-((N-(4-fluorobenzyl)-3-methoxybenzamido)methyl)phenyl)-2,6-dimethylpyridin-3-yl)acetic acid] | < 0.1 | – |
| CON(Cc1ccc(F)cc1)Cc1ccc(-c2c(C)nc(C)c([C@H](OC(C)(C)C)C(=O)O)c2N2CCC(C)(C)CC2)cc1 [Example 10, (S)-2-(tert-butoxy)-2-(4-(4,4-dimethylpiperidin-1-yl)-5-(4-(((4-fluorobenzyl)(methoxy)amino)methyl)phenyl)-2,6-dimethylpyridin-3-yl)acetic acid] | < 0.1 | – |
| Cc1nc(C)c([C@H](OC(C)(C)C)C(=O)O)c(N2CCC(C)(C)CC2)c1-c1ccc(CNCc2ccc(Cl)cc2)cc1 [Example 15, (S)-2-(tert-butoxy)-2-(5-(4-(((4-chlorobenzyl)amino)methyl)phenyl)-4-(4,4-dimethylpiperidin-1-yl)-2,6-dimethylpyridin-3-yl)acetic acid] | < 0.1 | – |
| Cc1nc(C)c([C@H](OC(C)(C)C)C(=O)O)c(N2CCC(C)(C)CC2)c1-c1ccc(CN(Cc2ccc(F)cc2)C(=O)C(C)(C)C)cc1 [Example 25, (S)-2-(tert-butoxy)-2-(4-(4,4-dimethylpiperidin-1-yl)-5-(4-((N-(4-fluorobenzyl)pivalamido)methyl)phenyl)-2,6-dimethylpyridin-3-yl)acetic acid] | < 0.1 | – |
| COc1ccccc1CCNCc1ccc(-c2c(C)nc(C)c([C@H](OC(C)(C)C)C(=O)O)c2N2CCC(C)(C)CC2)cc1 [Example 9, (S)-2-(tert-butoxy)-2-(4-(4,4-dimethylpiperidin-1-yl)-5-(4-(((2-methoxyphenethyl)amino)methyl)phenyl)-2,6-dimethylpyridin-3-yl)acetic acid] | < 0.1 | – |
| Cc1cc(OCc2ccc(-c3c(C)nc(C)c([C@H](OC(C)(C)C)C(=O)O)c3N3CCC(C)(C)CC3)cc2)ccc1Cl [Example 50, (S)-2-(tert-Butoxy)-2-(5-(4-((4-chloro-3-methylphenoxy)methyl)phenyl)-4-(4,4-dimethylpiperidin-1-yl)-2,6-dimethylpyridin-3-yl)acetic acid] | < 0.1 | – |
| Cc1cc(CNCc2ccc(-c3c(C)nc(C)c([C@H](OC(C)(C)C)C(=O)O)c3N3CCC(C)(C)CC3)cc2)ccc1F [Example 1, (S)-2-(tert-Butoxy)-2-(4-(4,4-dimethylpiperidin-1-yl)-5-(4-(((4-fluoro-3-methylbenzyl)amino)methyl)phenyl)-2,6-dimethylpyridin-3-yl)acetic acid] | < 0.1 | 0.013 |
| Cc1nc(C)c([C@H](OC(C)(C)C)C(=O)O)c(N2CCC(C)(C)CC2)c1-c1ccc(CNCCc2ccc(F)cc2)cc1 [Example 11, (S)-2-(tert-butoxy)-2-(4-(4,4-dimethylpiperidin-1-yl)-5-(4-(((4-fluorophenethyl)amino)methyl)phenyl)-2,6-dimethylpyridin-3-yl)acetic acid] | < 0.1 | – |
| COC(=O)N(Cc1ccc(F)cc1)Cc1ccc(-c2c(C)nc(C)c([C@H](OC(C)(C)C)C(=O)O)c2N2CCC(C)(C)CC2)cc1 [Example 32, (S)-2-(tert-butoxy)-2-(4-(4,4-dimethylpiperidin-1-yl)-5-(4-(((4-fluorobenzyl)(methoxycarbonyl)amino)methyl)phenyl)-2,6-dimethylpyridin-3-yl)acetic acid] | < 0.1 | – |
| COc1ccc(C(=O)N(Cc2ccc(F)cc2)Cc2ccc(-c3c(C)nc(C)c([C@H](OC(C)(C)C)C(=O)O)c3N3CCC(C)(C)CC3)cc2)cc1 [Example 45, (S)-2-(tert-butoxy)-2-(4-(4,4-dimethylpiperidin-1-yl)-5-(4-((N-(4-fluorobenzyl)-4-methoxybenzamido)methyl)phenyl)-2,6-dimethylpyridin-3-yl)acetic acid] | < 0.1 | – |
